# Laboratory results published in patent US9820957B2, “Methods of treating autoimmunity” (IM Therapeutics, Inc., priority 2016, dated 2017).
# Experiments:
# [1] = tested on: HLA-DQ8 antigen presenting cells with insulin responsive CD4 T cell receptor (TCR) transductant; assay: Inhibition of DQ8 antigen presentation in vitro, insulin responsive TCR transductant, IL-2 ELISA; format: cell-based; conditions: for inhibition of insulin responsive TCR transductant (secreted IL-2): 4 hours with peptide and compound, then overnight with transductant; for IC50 compared between the enantiomers: insulin responsive TCR transductant
# Procedure: (§1) Inhibition of DQ8 antigen presentation by the D- and L-enantiomers of α-methyldopa was tested and compared in vitro. HLA-DQ8 antigen presenting cells were cultured with a fixed concentration of peptide and a concentration of D- or L-α-methyldopa for 4 hours. TCR transductants were then added to each culture condition and cultured overnight. Secreted IL-2 from the TCR transductant was measured by ELISA for each condition.
# (§2) In these figures, 0 represents the TCR transductant response to peptide without the addition of α-methyldopa. No antigen IL-2 responses (negative control) were very low at <2 pg/ml. Results are presented as mean+/− SEM.
# [2] = cited from earlier work; for decarboxylation to α-methyl-dopamine in patients: Sjoerdsma et al. 1963, urine of treated patients
# [3] = tested on: HLA-DQ8 antigen presenting cells with gliadin-responsive CD4 T cell receptor (TCR) transductant; assay: Inhibition of DQ8 antigen presentation in vitro, gliadin-responsive TCR transductant, IL-2 ELISA; format: cell-based; conditions: for inhibition of gliadin-responsive TCR transductant (secreted IL-2): 4 hours with peptide and compound, then overnight with transductant; for IC50 compared between the enantiomers: gliadin-responsive TCR transductant
# Procedure: as §1, §2
# [4] = tested on: DQ8-restricted T cell; assay: Pharmacodynamics in DQ8 transgenic mice: ex vivo splenocytes stimulating a DQ8-restricted T cell to deamidated gliadin peptide; conditions: 4 mg by oral gavage daily for 5 days
# Text: Ex vivo splenocytes were used to stimulate a DQ8-restricted T cell to a deamidated gliadin peptide.
# [5] = Oral pharmacokinetics in HLA-DQ8 transgenic mice, plasma by HPLC-MS; format: in vivo; conditions: oral gavage, 4 mg
# Procedure: Separate cohorts of HLA-DQ8 transgenic mice (n=2) were gavaged with a specific dose of L- and D-α-methyldopa, followed by the collection of plasma 90 minutes later. […] Similarly, separate cohorts of mice (n=3) were gavaged with a specific enantiomer (D or L enantiomer) and dose (4 mg by gavage) of α-methyldopa followed by the collection of plasma at baseline, 1, 2, 4, 6, and 18 hours later. […] In these PK studies the Lower Limit of Quantification (LLOQ) was <2.5 ng/ml. Results are presented as mean+/− SEM.
IC50 compared between the enantiomers [1],IC50 compared between the enantiomers [3],time to maximum plasma concentration (Tmax) compared with the other enantiomer [5],SMILES,inhibition of insulin responsive TCR transductant (secreted IL-2) [1],absorption in humans compared with the other isomer ([2]; Au et al. 1972),decarboxylation to α-methyl-dopamine in patients [2],"pharmacologic activity ([2]; prior art view, Du et al., Gillespie et al. 1962)",inhibition of gliadin-responsive TCR transductant (secreted IL-2) [3],inhibition of the DQ8-restricted T cell response to deamidated gliadin peptide [4],response to positive control stimulus (anti-CD3) [4]
statistically similar IC50 values,statistically similar IC50 values,,"C[C@@](N)(Cc1ccc(O)c(O)c1)C(=O)O [D-α-methyldopa, D-α-Methyl-3,4-dihydroxyphenylalanine]",blocked in a dose-dependent manner,much less readily absorbed,did not decarboxylate,no pharmacologic activity,blocked in a dose-dependent manner,inhibition of the T cell response is observed,not different between the groups
statistically similar IC50 values,statistically similar IC50 values,slightly slower,"C[C@](N)(Cc1ccc(O)c(O)c1)C(=O)O [L-α-methyldopa, L-α-Methyl-3,4-dihydroxyphenylalanine, reference compound]",blocked in a dose-dependent manner,,α-methyl-dopamine did appear in the urine,,blocked in a dose-dependent manner,only for the D enantiomer,not different between the groups
